# Experimental data: patent publication US20210317408A1, “METHODS AND COMPOSITIONS FOR GENETICALLY MODIFYING LYMPHOCYTES IN BLOOD OR IN ENRICHED PBMCS” (Exuma Biotech Corp., priority 2018, published 2021)
# Experiments:
# unstimulated PBMCs = assay: Time course of lentiviral transduction of unstimulated PBMCs, 4 hours to less than 1 minute; assay type: cell-based, human; conditions: 10 μM during 4 hour transduction, replenished in recovery medium
# [1] = system: transduced human PBMCs expressing a CAR in CHO, CHO-ROR2 or CHO-AXL tumors; assay: miRNA library in vivo screen: miRNA blocks recovered from tumors 20 days after dosing transduced PBMCs; parameters: species or system mouse; conditions: conclusion from miRNA constructs recovered from tumors at day 20
# Source text: 108 gBlocks® Gene Fragments were used to generate a library of constructs each containing 4 miRNA precursors in series in positions 1 (P1), 2 (P2), 3 (P3), and 4 (P4). Each gBlock® was specific to P1, P2, P3, or P4 and contained a miR-155 framework (SEQ ID NO:457), including a 5′arm and a 3′arm as described in Example 17 of WO 2019/055946, in which a unique miRNA fragment targeting an mRNA transcript corresponding to 1 of 27 different genes was used to replace the miR-155 stem-loop precursor. For clarity, the sequences of miRNA fragments differed for each position P1-P4 even among miRNA fragments that targeted mRNA transcripts corresponding to the same gene. The gBlocks® for each position contained a unique 40 bp overlap sequence and the type IIs assembly method was used to assemble combinations of four gBlocks® in their prescribed order, to generate the library. By these methods, a total diversity of 531,441 unique constructs (27 miRNA at P1×27 miRNA at P2×27 miRNA at P3×27 miRNA at P4) was possible.
# The library of miRNA constructs was separately cloned into the EF-1 alpha intron A of F1-1-315 and F1-2-314 to generate Library 315 and Library 314, respectively. In addition to the EF-1 alpha promoter, F1-1-315 included a CD8a signal peptide, an anti-ROR2:CD28:CD3z CAR, T2A, and an eTag. […]
Molecule,inhibition of transduction (unstimulated PBMCs),effect of knocking down the transcript on T cells in the tumor microenvironment [1]
C[C@@H]1CCO[C@H]2Cn3cc(C(=O)NCc4ccc(F)cc4F)c(=O)c(O)c3C(=O)N12 [dolutegravir],inhibition of transduction,
Cc1cc(C)c(Nc2ccnc(Nc3ccc(C#N)cc3)n2)c(C)c1 [dapivirine],inhibition of transduction,
"SMAD4: miRNA in miR-155 framework directed against SMAD4, SEQ ID NOs:406-409 (nucleic acid, Synthetic SMAD4 miRNA at P1; Synthetic SMAD4 miRNA at P2; Synthetic SMAD4 miRNA at P3; Synthetic SMAD4 miRNA at P4) DNA 1: CGGCACCTGCGCTGCCGTTGGATCGGGGATGAAAGCTGGCGCTGGAGGCTTGCTGAAGGCTGTATGCTGAATTAGGTGTGTATGGTGCAGGTTTTGGCCACTGACTGACCTGCACCACACACCTAATTCAGGACACAAGGCCTGTTACTAGCACTCACATGGAACAAATGGCCCACATTGGTGCCGGATGAAGCTCTTATGTTGCGTCCCATCGCAGGTGCCT DNA 2: CCTCACCTGCTTGCGTCCCATTCTGGAGGCTTGCTGAAGGCTGTATGCTGAAGTACTTCGTCTAGGAGCTGGTTTTGGCCACTGACTGACCAGCTCCTACGAAGTACTTCAGGACACAAGGCCTGTTACTAGCACTCACATGGAACAAATGGCCGTTGCCTGAGTCTTGGCAGCGAGAGATCACTAACTGCTAAGCAGGTGCTT DNA 3: TGTCACCTGCACTAACTGCTAACTGGAGGCTTGCTGAAGGCTGTATGCTGTATCCCACGATCTACTCCCCGGTTTTGGCCACTGACTGACCGGGGAGTATCGTGGGATACAGGACACAAGGCCTGTTACTAGCACTCACATGGAACAAATGGCCGTGTTAATTGTCCATGTAGCGAGGCATCCTTATGGCGTGGGCAGGTGTCC DNA 4: CCTTCACCTGCCTTATGGCGTGGCTGGAGGCTTGCTGAAGGCTGTATGCTGTTATGATGGTAAGTAGCTGGCGTTTTGGCCACTGACTGACGCCAGCTATACCATCATAACAGGACACAAGGCCTGTTACTAGCACTCACATGGAACAAATGGCCGGTGTCCGTTATCGGGGAAGAAGGTCGCGCACATAGCAGGTGTCC",,promote the survival and/or proliferation of T cells
